Results on 23 compounds are retold here after US9296725B2, “Heterocyclyl pyrimidine analogues as TYK2 inhibitors” (Cellzome Limited, priority 2012, dated 2016).

The target in one test is T1, JAK2 (Homo sapiens, UniProt O60674).
T1 construct: endogenous in cells; host or cells: Molt4 (ATCC CRL-1582) and Ramos (ATCC CRL-1596), mixed lysate 1:2
The test is described as follows: Kinobeads assay, JAK2 (competition binding in mixed Molt4/Ramos cell lysate, dot blot detection). The following applies: read-out: JAK2 Band (Kinobeads assay potency, IC50). How it is done: (§1) The compounds of the present invention as described in the previous examples were tested in a Kinobeads™ assay as described for ZAP-70 (WO-A 2007/137867). Briefly, test compounds (at various concentrations) and the affinity matrix with the immobilized aminopyrido-pyrimidine ligand 24 were added to cell lysate aliquots and allowed to bind to the proteins in 10 the lysate sample. After the incubation time the beads with captured proteins were separated from the lysate. Bound proteins were then eluted and the presence of TYK2 and JAK2 was detected and quantified using specific antibodies in a dot blot procedure and the Odyssey infrared detection system. Dose response curves for individual kinases were generated and IC50 values calculated. Kinobeads™ assays have been previously described (WO-A 2007/137867; WO-A 2006/134056).
(§2) The affinity matrix was washed two times with 15 mL of 1×DP buffer containing 0.2% NP40 (IGEPAL® CA-630, Sigma, #13021) and then resuspended in 1×DP buffer containing 0.2% NP40 (3% beads slurry). 5×DP buffer: 250 mM Tris-HCl pH 7.4, 25% Glycerol, 7.5 mM MgCl2, 750 mM NaCl, 5 mM Na3VO4; filter the 5×DP buffer through a 0.22 μm filter and store in aliquots at −80° C. The 5×DP buffer is diluted with H2O to 1×DP buffer containing 1 mM DTT and 25 mM NaF.
(§3) Stock solutions of test compounds were prepared in DMSO. In a 96 well plate 30 μL solution of diluted test compounds at 5 mM in DMSO were prepared. Starting with this solution a 1:3 dilution series (9 steps) was prepared. For control experiments (no test compound) a buffer containing 2% DMSO was used.
(§4) Molt4 cells (ATCC catalogue number CRL-1582) and Ramos cells (ATCC catalogue number CRL-1596) were grown in 1 L Spinner flasks (Integra Biosciences, #182101) in suspension in RPMI 1640 medium (Invitrogen, #21875-034) supplemented with 10% Fetal Bovine Serum (Invitrogen) at a density between 0.15×10^6 and 1.2×10^6 cells/mL. Cells were harvested by centrifugation, washed once with 1×PBS buffer (Invitrogen, #14190-094) and cell pellets were frozen in liquid nitrogen and subsequently stored at −80° C. Cells were homogenized in a Potter S homogenizer in lysis buffer: 50 mM Tris-HCl, 0.8% NP40, 5% glycerol, 150 mM NaCl, 1.5 mM MgCl2, 25 mM NaF, 1 mM sodium vanadate, 1 mM DTT, pH 7.5. One complete EDTA-free tablet (protease inhibitor cocktail, Roche Diagnostics, 1873580) per 25 mL buffer was added. The material was dounced 10 times using a mechanized POTTER S, transferred to 50 mL falcon tubes, incubated for 30 minutes on ice and spun down for 10 minutes at 20,000 g at 4° C. (10,000 rpm in Sorvall SLA600, precooled). The supernatant was transferred to an ultracentrifuge (UZ)-polycarbonate tube (Beckmann, 355654) and spun for 1 hour at 100.000 g at 4° C. (33.500 rpm in Ti50.2, precooled). The supernatant was transferred again to a fresh 50 mL falcon tube, the protein concentration was determined by a Bradford assay (BioRad) and samples containing 50 mg of protein per aliquot were prepared. The samples were immediately used for experiments or frozen in liquid nitrogen and stored frozen at −80° C.
(§5) Cell lysate (approximately 50 mg protein per plate) was thawed in a water bath at room temperature and then stored on ice. To the thawed cell lysate 1×DP 0.8% NP40 buffer containing protease inhibitors (1 tablet for 25 mL buffer; EDTA-free protease inhibitor cocktail; Roche Diagnostics 1873580) was added in order to reach a final protein concentration of 10 mg/mL total protein. The diluted cell lysate was stored on ice. Mixed Molt4/Ramos lysate was prepared by combining one volume of Molt4 lysate and two volumes of Ramos lysate (ratio 1:2).
(§6) To a 96 well filter plate (Multiscreen HTS, BV Filter Plates, Millipore #MSBVN1250) were added per well: 100 μL affinity matrix (3% beads slurry), 3 μL of compound solution, and 50 μL of diluted lysate. Plates were sealed and incubated for 3 hours in a cold room on a plate shaker (Heidolph tiramax 1000) at 750 rpm. […]

A further test has as its target T2, TYK2 (Homo sapiens, UniProt P29597).
T2 construct: endogenous in cells; host or cells: Molt4 (ATCC CRL-1582) and Ramos (ATCC CRL-1596), mixed lysate 1:2
The test is described as follows: Kinobeads assay, TYK2 (competition binding in mixed Molt4/Ramos cell lysate, dot blot detection). Particulars: Kinobeads assay, Molt4/Ramos lysate; read-out: TYK2 Band (Kinobeads assay potency, IC50). How it is done: as §1, §2, §3, §4, §5, §6

The structures appear in SMILES notation.

One may read the IC50 as the concentration that inhibits the measured activity by half.

T1 sequence (O60674 whole entry): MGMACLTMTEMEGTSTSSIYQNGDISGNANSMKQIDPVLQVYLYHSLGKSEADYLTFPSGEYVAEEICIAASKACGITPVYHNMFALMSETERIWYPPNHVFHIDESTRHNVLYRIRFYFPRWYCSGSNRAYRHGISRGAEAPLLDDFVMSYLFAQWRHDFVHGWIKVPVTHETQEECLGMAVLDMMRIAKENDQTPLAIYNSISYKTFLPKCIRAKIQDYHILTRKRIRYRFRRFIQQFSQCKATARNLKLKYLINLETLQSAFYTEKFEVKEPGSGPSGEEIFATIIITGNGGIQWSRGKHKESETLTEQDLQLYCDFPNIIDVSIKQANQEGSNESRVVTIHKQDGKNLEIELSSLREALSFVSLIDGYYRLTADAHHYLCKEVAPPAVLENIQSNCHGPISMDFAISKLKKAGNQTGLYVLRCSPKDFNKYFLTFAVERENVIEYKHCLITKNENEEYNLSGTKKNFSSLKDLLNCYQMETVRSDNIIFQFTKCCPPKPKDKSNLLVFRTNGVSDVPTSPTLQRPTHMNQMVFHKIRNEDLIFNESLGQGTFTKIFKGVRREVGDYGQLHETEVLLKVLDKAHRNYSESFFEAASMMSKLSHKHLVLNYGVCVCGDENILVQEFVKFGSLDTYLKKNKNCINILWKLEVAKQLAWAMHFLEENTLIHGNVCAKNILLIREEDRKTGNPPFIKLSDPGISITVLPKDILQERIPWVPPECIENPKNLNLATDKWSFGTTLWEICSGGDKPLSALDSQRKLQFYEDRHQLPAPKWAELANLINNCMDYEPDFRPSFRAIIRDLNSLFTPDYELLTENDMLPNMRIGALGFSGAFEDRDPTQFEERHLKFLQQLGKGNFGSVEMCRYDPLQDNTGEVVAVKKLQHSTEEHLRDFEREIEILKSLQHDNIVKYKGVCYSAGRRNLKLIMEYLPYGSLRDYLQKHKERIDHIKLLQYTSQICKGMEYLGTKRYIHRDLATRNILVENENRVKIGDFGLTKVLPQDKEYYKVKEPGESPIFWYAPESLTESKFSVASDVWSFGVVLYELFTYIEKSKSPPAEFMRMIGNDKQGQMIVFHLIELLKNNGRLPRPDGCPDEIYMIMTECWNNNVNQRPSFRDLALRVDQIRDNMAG
T2 sequence (P29597 whole entry): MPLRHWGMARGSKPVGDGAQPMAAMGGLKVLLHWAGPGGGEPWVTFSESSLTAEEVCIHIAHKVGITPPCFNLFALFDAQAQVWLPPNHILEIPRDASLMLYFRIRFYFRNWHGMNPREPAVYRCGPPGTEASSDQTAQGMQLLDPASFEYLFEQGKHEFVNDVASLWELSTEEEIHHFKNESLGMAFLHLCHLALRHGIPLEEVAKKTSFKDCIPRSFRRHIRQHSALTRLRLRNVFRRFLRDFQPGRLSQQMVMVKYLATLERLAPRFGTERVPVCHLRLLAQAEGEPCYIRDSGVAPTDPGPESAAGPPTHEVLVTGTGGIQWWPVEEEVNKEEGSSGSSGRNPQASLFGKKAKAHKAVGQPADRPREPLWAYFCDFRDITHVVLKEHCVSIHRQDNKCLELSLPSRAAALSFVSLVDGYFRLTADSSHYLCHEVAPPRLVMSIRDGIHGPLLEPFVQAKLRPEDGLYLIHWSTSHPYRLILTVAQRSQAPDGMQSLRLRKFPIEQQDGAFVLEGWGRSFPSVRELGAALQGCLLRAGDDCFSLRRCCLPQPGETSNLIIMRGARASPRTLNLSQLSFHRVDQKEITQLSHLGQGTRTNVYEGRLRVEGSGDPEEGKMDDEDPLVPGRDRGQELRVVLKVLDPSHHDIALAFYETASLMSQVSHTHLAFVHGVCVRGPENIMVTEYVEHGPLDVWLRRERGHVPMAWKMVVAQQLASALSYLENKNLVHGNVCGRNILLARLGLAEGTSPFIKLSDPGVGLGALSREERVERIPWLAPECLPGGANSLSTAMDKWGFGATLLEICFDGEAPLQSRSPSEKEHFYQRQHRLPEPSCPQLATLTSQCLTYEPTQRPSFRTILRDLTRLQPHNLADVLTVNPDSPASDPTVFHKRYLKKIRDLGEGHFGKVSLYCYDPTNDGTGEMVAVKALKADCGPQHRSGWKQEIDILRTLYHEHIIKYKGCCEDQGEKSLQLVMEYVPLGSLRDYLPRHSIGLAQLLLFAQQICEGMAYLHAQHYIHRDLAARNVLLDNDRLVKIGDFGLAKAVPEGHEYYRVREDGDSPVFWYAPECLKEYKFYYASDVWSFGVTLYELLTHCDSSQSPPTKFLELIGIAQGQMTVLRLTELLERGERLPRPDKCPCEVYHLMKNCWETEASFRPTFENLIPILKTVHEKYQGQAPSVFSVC

For `Cn1cc(Nc2ncc(Cl)c(NCc3cccc(F)c3F)n2)cn1` [Example I-179], the IC50 on JAK2 and at TYK2 was 100 to 1000 nM in each case.

On to `Cc1cnc(Nc2cnn(CC(=O)NC3CC3)c2)nc1NCc1cc(F)cc(F)c1F` [Example I-101], for which the half-maximal inhibitory concentration (IC50) at JAK2 fell in the range of 100 to 1000 nM; at TYK2 it was 10 to 100 nM.

Take `CS(=O)(=O)CCn1cc(Nc2ncc(Cl)c(NCc3ccccc3)n2)cn1` [Example I-289]: the IC50 at JAK2 and on TYK2 was 1000 to 10000 nM throughout.

Turning to `CN(C)C(=O)Cn1cc(Nc2ncc(Cl)c(NCc3cc(OC(F)F)ccc3F)n2)cn1` [Example I-414], the IC50 on JAK2 is 1000 to 10000 nM; on TYK2 it was 10 to 100 nM.

For `CC(C)NC(=O)Cn1cc(Nc2nccc(NCc3c(F)cccc3Cl)n2)cn1` [Example I-77], the half-maximal inhibitory concentration (IC50) at JAK2 is 1000 to 10000 nM; on TYK2 it was ≤ 10 nM.

As for `O=C(Cn1cc(Nc2nccc(NCc3c(F)cc(F)cc3F)n2)cn1)NC1CC1(F)F` (stereo not shown) [Example I-91], the IC50 on JAK2 was > 10000 nM; at TYK2 it was 10 to 100 nM.

As for `CCOc1ccc(F)c(CNc2nc(Nc3cnn(CC(N)=O)c3)ncc2Cl)c1F` [Example I-267], the half-maximal inhibitory concentration (IC50) at JAK2 was 100 to 1000 nM; at TYK2 it was 10 to 100 nM.

For `Cc1cnc(Nc2cnn(CC(=O)N(C)C)c2)nc1NCc1c(F)cc(F)cc1F` [Example I-19], the IC50 at JAK2 was in the range of 100 to 1000 nM; at TYK2 it was 10 to 100 nM.

For the compound `Cc1cnc(Nc2cnn(CC(=O)N3CCOCC3)c2)nc1NCc1ccccc1` [Example I-296], the IC50 on JAK2 lay in the range of 1000 to 10000 nM; at TYK2, 10 to 100 nM.

Regarding `OCCn1cc(Nc2ncc(Cl)c(NCc3c(F)cccc3-c3cn[nH]c3)n2)cn1` [Example I-265], the IC50 at JAK2 fell in the range of 1000 to 10000 nM; at TYK2, 100 to 1000 nM.

Consider `CNC(=O)Cn1cc(Nc2ncc(Cl)c(NCc3cc(Br)cc(F)c3F)n2)cn1` [Example I-262], for which the IC50 on JAK2 and on TYK2 was 100 to 1000 nM throughout.

Turning to `CN(C)C(=O)Cn1cc(Nc2ncc(Cl)c(NCc3ccccc3)n2)cn1` [Example I-217], the IC50 on JAK2 lay within 1000 to 10000 nM; at TYK2, 100 to 1000 nM.

On to `COc1ccc(F)c(CNc2nc(Nc3cnn(CC(=O)N(C)C)c3)ncc2Cl)c1F` [Example I-376], for which the figures for the IC50 at JAK2 and on TYK2 were 100 to 1000 nM and 10 to 100 nM, respectively.

For `C[C@H](CO)NC(=O)Cn1cc(Nc2nccc(NCc3c(F)cccc3F)n2)cn1` [Example I-490], the IC50 at JAK2 lay in the range of 1000 to 10000 nM; on TYK2, 10 to 100 nM.

Regarding `O=C(Cn1cc(Nc2ncc(F)c(NCc3c(F)cc(F)cc3F)n2)cn1)NC1CCC1` [Example I-308], the IC50 at JAK2 is > 10000 nM; at TYK2, 10 to 100 nM.

With `CC(C)N(C)C(=O)Cn1cc(Nc2nccc(NCc3c(F)cc(F)cc3F)n2)cn1` [Example I-317], the half-maximal inhibitory concentration (IC50) on JAK2 was > 10000 nM; on TYK2 it was 10 to 100 nM.

Regarding `C[C@H](O)Cn1cc(Nc2ncc(Cl)c(NCc3ccccc3F)n2)cn1` [Example I-257], the IC50 on JAK2 and at TYK2 was 100 to 1000 nM each time.

Consider `OCCn1cc(Nc2ncc(Cl)c(NCc3cc(OC(F)F)ccc3F)n2)cn1` [Example I-413], for which the IC50 at JAK2 was in the range of 100 to 1000 nM; on TYK2 it was 10 to 100 nM.

Consider `OCCn1cc(Nc2ncc(Cl)c(NCc3cccc(F)c3F)n2)cn1` [Example I-180], for which the IC50 lay in the range of 100 to 1000 nM at JAK2 and 10 to 100 nM on TYK2.

Consider `Fc1cccc(F)c1CNc1nc(Nc2cnn(C(F)F)c2)ncc1Cl` [Example I-224], for which the values for the IC50 at JAK2 and at TYK2 were 1000 to 10000 nM and 100 to 1000 nM, respectively.

In the case of `OCCn1cc(Nc2ncc(Cl)c(NCc3ccc(C(F)(F)F)cc3F)n2)cn1` [Example I-245], the IC50 on JAK2 is 10 to 100 nM; on TYK2 it was 1000 to 10000 nM.

As to `C[C@H](CO)NC(=O)Cn1cc(Nc2ncc(F)c(NCc3c(F)cc(F)cc3F)n2)cn1` [Example I-41], the 50% inhibitory concentration (IC50) at JAK2 lay within 1000 to 10000 nM; on TYK2 it was 10 to 100 nM.

With `CS(=O)(=O)c1ccc(F)cc1CNc1nc(Nc2cnn(CC(N)=O)c2)ncc1F` [Example I-489], the IC50 was in the range of 100 to 1000 nM on JAK2 and 10 to 100 nM on TYK2.
